Test results: PubChem BioAssay (NCI)
Values joined by “and” are separate entries in the source; they are usually repeats but may differ in a detail not shown here. Identical values can stand only once.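 Briefly, cells in 96-well plates were exposed to five compound concentrations for 48 h, and endpoints were estimated by linear interpolation. The concentration for 50% growth inhibition is given as GI50. TGI is the concentration that stops growth completely.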 Peptide text beside a SMILES is read from it. * marks the point of attachment. Boc = CC(C)(C)OC(=O)*

Tests used:
Assay in all cases: NCI tumour cell line growth inhibition, 48 h
HCT-15 colon = system: HCT-15 colon
HS 578T breast = system: HS 578T breast
HT29 colon = system: HT29 colon
MDA-MB-435 = system: MDA-MB-435
MOLT-4 leukemia = system: MOLT-4 leukemia
NCI-H460 lung = system: NCI-H460 lung
OVCAR-8 ovarian = system: OVCAR-8 ovarian
SF-295 CNS = system: SF-295 CNS
SN12C renal = system: SN12C renal
T-47D breast = system: T-47D breast

| Structure (SMILES) | TGI (HCT-15 colon) | TGI (HS 578T breast) | TGI (HT29 colon) | TGI (MDA-MB-435) | TGI (MOLT-4 leukemia) | TGI (NCI-H460 lung) | TGI (OVCAR-8 ovarian) | TGI (SF-295 CNS) | TGI (SN12C renal) | TGI (T-47D breast) | GI50 (HCT-15 colon) | GI50 (NCI-H460 lung) | GI50 (SF-295 CNS) | GI50 (HT29 colon) | GI50 (MOLT-4 leukemia) | GI50 (OVCAR-8 ovarian) |
| --- | --- | --- | --- | --- | --- | --- | --- | --- | --- | --- | --- | --- | --- | --- | --- | --- |
| C[C@@H](C[C@@H](O)[C@H](O)C(C)(C)O)[C@H]1CC=C2[C@]3(C)[C@H](O)C[C@H]4C(C)(C)[C@H](O)CC[C@]4(C)[C@H]3CC[C@@]21C | 36.1 µM | 50.4 µM | 26.2 µM | 31.4 µM | 29.6 µM | 30.2 µM | 33.8 µM | 28.6 µM | 31 µM | – | – | – | – | – | – | – |
| CN1C(=O)[C@@]2(C=CC3(CC2)OCCO3)c2ccccc21 | > 50 µM | – | > 50 µM | > 50 µM | > 50 µM | > 50 µM | > 50 µM | > 50 µM | > 50 µM | > 50 µM | – | – | – | – | – | – |
| O=C(Nc1ccccc1)N1N=C(c2ccccc2)C1c1ccccc1 (stereo not drawn) | > 100 µM | 60.7 µM | 39.8 µM | – | – | > 100 µM | > 100 µM | 73.8 µM | > 100 µM | > 100 µM | – | – | – | – | – | – |
| CSCCC(NC(=O)C(CC(C)C)NC(=O)CNC(=O)OC(C)(C)C)C(=O)N(C)C (stereo not drawn) (Boc-Gly-Leu-Met-NMe2; configuration not given here) | > 100 µM | > 100 µM | > 100 µM | > 100 µM | > 100 µM | – | > 100 µM | > 100 µM | > 100 µM | > 100 µM | – | – | – | – | – | – |
| C=CCN1C(=O)/C(=C/c2ccc(Cl)cc2)N=C1SC1OC(COC(C)=O)C(OC(C)=O)C(OC(C)=O)C1OC(C)=O (stereo not drawn) | > 100 µM | 9.79 µM | > 100 µM | > 66.3 µM and 64.8 µM | > 100 µM and 43.2 µM | 36.2 µM and > 100 µM | 36 µM and 81.4 µM | 54 µM and > 100 µM | > 100 µM | 36.9 µM | 41.1 µM and 16 µM | 8.11 µM and 31.5 µM | 18.2 µM and 49.9 µM | – | – | – |
| CC(=O)c1nccc2c1c(C)nc1ccccc12 | > 100 µM | 96.3 µM | > 100 µM | > 100 µM | > 100 µM | > 100 µM | > 100 µM | > 100 µM | > 100 µM | > 100 µM | – | – | – | – | – | – |
| Cc1ccc(Nc2nnc3n2S(=O)(=O)c2cc(C)c(Cl)cc2S3)cc1 | 51.3 µM | 8.67 µM | 38.5 µM | 70.4 µM | 32.7 µM | > 100 µM | 33.1 µM | 25.7 µM | – | > 100 µM | – | – | – | – | – | – |
| COC(=O)CNC(=O)/C=C/[C@H](O[Si](C)(C)C(C)(C)C)[C@H](/C=C/C(=O)NCC(=O)OC)O[Si](C)(C)C(C)(C)C | > 25 µM | > 25 µM | > 25 µM | > 25 µM | > 25 µM | > 25 µM | > 25 µM | > 25 µM | > 25 µM | > 25 µM | – | – | – | – | – | – |
| Cc1ccc(S(=O)(=O)NC(=O)NS(=O)(=O)O)cc1 | > 100 µM | > 100 µM | > 100 µM | – | > 100 µM | > 100 µM | > 100 µM | – | > 100 µM | > 100 µM | – | – | – | – | – | – |
| CC(=O)c1c(O)c(C)c(O)c2c1OC1=CC(=O)C(C(C)=O)C(=O)C12C (stereo not drawn) | 27.6 µM and 60.4 µM | – | 29.3 µM and 70.2 µM | – | 13.5 µM and 59.4 µM | 20.4 µM and 43.7 µM | 22.3 µM and 52.2 µM | 12.4 µM and 33.8 µM | 8.95 µM and 50.1 µM | – | 5.23 µM and 16.6 µM | 5.29 µM and 14.5 µM | 3.48 µM and 8.79 µM | 6.28 µM and 25.7 µM | 3.37 µM and 20.1 µM | 4.84 µM and 14.1 µM |
